Reference: PubChem BioAssay (NCI)
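Test compounds were applied to cells in 96-well plates for 48 hours at 5 doses. TGI denotes the concentration required for complete inhibition of growth.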

How the values were obtained:
Assay in all cases: NCI tumour cell line growth inhibition, 48 h
A549 NSCLC = test system: A549 NSCLC
T-47D breast = test system: T-47D breast
KM12 colon = test system: KM12 colon
MDA-MB-231 breast = test system: MDA-MB-231 breast
MDA-N = test system: MDA-N
SF-295 CNS = test system: SF-295 CNS
M14 melanoma = test system: M14 melanoma
NCI-H226 lung = test system: NCI-H226 lung
HOP-92 NSCLC = test system: HOP-92 NSCLC
ACHN renal = test system: ACHN renal
PC-3 prostate = test system: PC-3 prostate

Compound | TGI (A549 NSCLC) | TGI (T-47D breast) | TGI (KM12 colon) | TGI (MDA-MB-231 breast) | TGI (MDA-N) | TGI (SF-295 CNS) | TGI (M14 melanoma) | TGI (NCI-H226 lung) | TGI (HOP-92 NSCLC) | TGI (ACHN renal) | TGI (PC-3 prostate)
CC(C)CC1c2[nH]c3ccccc3c2C[C@H]2C(=O)NC(CCC(=O)OC(C)(C)C)C(=O)N12 (some centres undefined) | > 100 µM | 49.7 µM | > 100 µM | 79.1 µM | > 100 µM | 41.1 µM | > 100 µM | > 100 µM | 78.1 µM | > 100 µM | 69 µM
[N-]=[N+]=Nc1ccc2c(c1)Sc1ccccc1N2CCCCCl | > 100 µM | > 100 µM | > 100 µM | > 100 µM | > 100 µM | > 100 µM | > 100 µM | > 100 µM | > 100 µM | > 100 µM | > 100 µM
COc1cc(-c2coc3c(OC)c(OC4OC(CO)C(O)C(O)C4O)c(OC)cc3c2=O)cc(OC)c1C (centres undefined) | > 55.6 µM | 45.1 µM | 28.3 µM | > 54.5 µM | 46.7 µM | 28.5 µM | 23.2 µM | 68.1 µM | 38.4 µM | 30 µM | > 54.3 µM
CN(C)CCO/N=C1/C=C2CC[C@H]3[C@@H]4CC[C@H](O)[C@@]4(C)CC[C@@H]3[C@@]2(C)CC1 | > 65.2 µM | 97.9 µM | 32.4 µM | 44.4 µM | 11.2 µM | 32.4 µM | > 37 µM | 8.87 µM | 23 µM | 40.9 µM | > 100 µM
CCOC(=O)c1ccc(C(=O)/C(C#N)=C2\CCCN2)[nH]1 | > 100 µM | > 100 µM | > 100 µM | > 100 µM | > 100 µM | > 100 µM | > 100 µM | > 100 µM | > 100 µM |  | > 100 µM
CC1=C(OC2OC(CO)C(O)C(O)C2O)C(=O)C[C@H]2C1=CC[C@@H]1[C@@]2(C)C(=O)C[C@]2(C)[C@@H]([C@@](C)(O)C(=O)CCC(C)(C)O)[C@H](O)C[C@@]12C (some centres undefined) | > 100 µM | > 100 µM | > 100 µM | > 100 µM | > 100 µM | > 100 µM | > 100 µM | > 100 µM | > 100 µM | > 100 µM | > 100 µM
CC1C[C@]2(C)C(=S)Nc3ccccc3[C@@H]2Nc2ccccc21 (some centres undefined) | 37.8 µM | 41 µM | 28.9 µM | 26.3 µM | 37.4 µM | 37.9 µM | 32.4 µM | 36.6 µM | 25.2 µM | 39.5 µM | 35.7 µM
CCOC(=O)n1cncc1CC(NC(=O)Cc1c(C(=O)C=C(C)C)[nH]c2ccccc12)C(=O)OC (centres undefined) | 45.3 µM | 7.46 µM | 39.1 µM | 36.1 µM | 84.3 µM | 35.5 µM | 33.3 µM | 41.3 µM | 26.4 µM | 36 µM | 33.6 µM
CC1(C)C(=O)N=C(N)N1C(=O)OCc1ccccc1 | > 100 µM | > 100 µM | > 100 µM | > 100 µM | > 100 µM | > 100 µM | > 100 µM | > 100 µM | > 100 µM | > 100 µM | > 100 µM
O=c1c2cccnc2nc2ccc3c[nH][nH]c3c12 | > 10 µM | > 10 µM | > 10 µM | > 10 µM | > 10 µM | > 10 µM | > 10 µM | > 10 µM | > 10 µM | > 10 µM | > 10 µM
O=C(Nc1nc(C23CC4CC(CC(C4)C2)C3)cs1)c1cc2cc(Br)cc(Br)c2oc1=O | > 100 µM | > 100 µM | > 100 µM | > 100 µM | > 100 µM | > 100 µM |  | > 100 µM | > 100 µM | > 100 µM | > 100 µM
CCCCCCCCCCCCCCCCP(=O)(O)OP(=O)(O)OCC1OC(n2cnc3c(N)ncnc32)C(O)C1O (centres undefined) | > 100 µM | > 100 µM | 53.8 µM | > 100 µM | > 100 µM |  | 56.7 µM | 39.6 µM | 42 µM | 62.1 µM | 52.9 µM
CC1(C)OCC(C2OC(N3O[C@H](CI)C[C@@H]3c3ccccc3)C3OC(C)(C)OC23)O1 (some centres undefined) | > 100 µM | > 100 µM | > 100 µM | > 100 µM | > 100 µM | > 100 µM | > 100 µM |  | > 100 µM | > 100 µM | > 100 µM
C=C[C@H]1CN2CCc3c([nH]c4c([C@H]5CCCN5C)c(O)ccc34)[C@@H]2C[C@@H]1C[C@H]1c2[nH]c3ccccc3c2CCN1C | 3.08 µM | 3.72 µM | 2.82 µM | 3.41 µM | 2.64 µM | 3.25 µM | 2.89 µM |  | 2.82 µM | 3.33 µM | 3.11 µM
C[Si](C)(C)OC1c2[nH]c3ccccc3c2CN2C(=O)CCC12 (centres undefined) | > 100 µM | > 100 µM | > 100 µM | > 100 µM | > 100 µM |  | > 100 µM | > 100 µM | > 100 µM | > 100 µM | > 100 µM
